Experimental data published in US20200397796A1, “METHODS OF TREATMENT OF CANCER COMPRISING CHK1 INHIBITORS” (SIERRA ONCOLOGY, INC., priority 2018, published 2020).

How the values were obtained:
[1] = tested on: Pan02; assay: In vivo efficacy, Pan02 syngeneic mouse model; details: in combination with a PD1/PD-L1 inhibitor; data not shown
Procedure: (§1) A program of in vivo efficacy studies was performed to assess the activity of SRA737 in combination with genotoxic chemotherapy and targeted agents, and as monotherapy.
(§2) One of these models also carried a MYCN amplification. A fourth HGSOC PDX model with partial resistance to PARPi was also sensitive to high dose SRA737 monotherapy.

[2] = Parallel artificial membrane permeability assay (PAMPA); assay type: in vitro ADME
Procedure: The membrane permeability of SRA737 was assessed in the parallel artificial membrane permeability assay (PAMPA) and Caco-2 assays. Permeability in the PAMPA assay was classified as low.

[3] = GLP 28-day repeat oral dose toxicity and toxicokinetics, mouse
[4] = tested on: human hepatocytes; assay: Stability and metabolites in cryopreserved hepatocytes, human; assay type: in vitro ADME
Procedure: The formation of SRA737-related metabolites was determined in cryopreserved hepatocytes from human, mouse, rat, dog, minipig and monkey samples after incubation with SRA737 at a nominal concentration of 10 μM for up to 4 hours. […] In the human hepatocyte preparation, approximately 67% of the parent remained after 4 hours of incubation compared to 75% and 7% in the rat and minipig preparations, respectively. Eight human SRA737 metabolites were observed. All SRA737 metabolites formed by human hepatocytes were also formed by monkey hepatocytes. Six metabolites were present at equal or greater abundance in the monkey.

[5] = Single dose PK, monkey; assay type: in vivo
Procedure: (§3) The PK of SRA737 have been determined in the mouse, rat, dog and monkey following oral and IV administration (Table 3). […] An acceptable terminal elimination t1/2 was also observed in each species. […] The plasma protein binding of SRA737 at 1 and 10 μM was examined in mouse, minipig, monkey and human plasma using ultracentrifugation and in dog plasma (10 μM) using rapid equilibrium dialysis.

[6] = tested on: PDX model of TNBC; assay: In vivo efficacy, PDX model of TNBC; parameters: species or system mouse; details: with low-dose gemcitabine; data not shown
Procedure: as §1, §2

[7] = GLP 28-day repeat oral dose toxicity and toxicokinetics, minipig; assay type: in vivo
From the text: Reference source not found.6.

[8] = Plasma protein binding, rapid equilibrium dialysis, dog; assay type: in vitro ADME; details: 10 μM
Procedure: as §3

[9] = female, mouse, in vivo, po, 10 mg/kg/day
[10] = female, mouse, in vivo, po, 40 mg/kg/day
[11] = female, mouse, in vivo, po, 75 mg/kg/day
[12] = male, mouse, in vivo, po, 10 mg/kg/day
[13] = male, mouse, in vivo, po, 40 mg/kg/day
[14] = male, mouse, in vivo, po, 75 mg/kg/day
[15] = in vivo, Monkey IV 1 mg/kg single dose
[16] = in vivo, Monkey oral 2 mg/kg single dose
[17] = in vivo, Monkey oral 10 mg/kg single dose
[18] = in vivo, po, Minipig Female, 10 mg/kg/day (HNSTD), daily dosing for 28 days
[19] = in vivo, po, Minipig Female, 40 mg/kg/day, daily dosing for 28 days
[20] = in vivo, po, Minipig Female, 75 mg/kg/day, daily dosing for 28 days
[21] = in vivo, po, Minipig Male, 10 mg/kg/day (HNSTD), daily dosing for 28 days
[22] = in vivo, po, Minipig Male, 40 mg/kg/day, daily dosing for 28 days

N#Cc1cnc(Nc2cc(NCC3CNCCO3)c(C(F)(F)F)cn2)cn1 (centres unmarked) [SRA737, 5-[[4-[[morpholin-2-yl]methylamino]-5-(trifluoromethyl)-2-pyridyl]amino]pyrazine-2-carbonitrile]
antitumor activity [1]: Significant antitumor activity | permeability in the PAMPA assay [2]: low | AUC(0-t) [3, 9]: 3610 ng·h/mL | Cmax [3, 9]: 918 ng/mL | half-life [3, 9]: 5.18 h | AUC(0-t) [3, 10]: 24800 ng·h/mL | Cmax at 28 days [3, 10]: 2350 ng/mL | half-life [3, 10]: 5.09 h | AUC(0-t) [3, 11]: 45500 ng·h/mL | Cmax [3, 11]: 4030 ng/mL | half-life [3, 11]: 6.96 h | AUC(0-t) [3, 12]: 4410 ng·h/mL | Cmax [3, 12]: 903 ng/mL | AUC(0-t) [3, 13]: 34300 ng·h/mL | Cmax at 28 days [3, 13]: 3250 ng/mL | half-life [3, 13]: 6.22 h | AUC(0-t) [3, 14]: 68600 ng·h/mL | Cmax [3, 14]: 5450 ng/mL | half-life [3, 14]: 8.36 h | toxicological findings ([3]; mouse pivotal study, dose-dependent, reversible on cessation): bone marrow toxicity | MTD at 28 days ([3]; mouse, in vivo, po): 75 mg/kg/day | human-specific metabolites ([4]; compared with mouse, rat, dog, minipig and monkey hepatocytes): No human-specific metabolites | number of human SRA737 metabolites observed ([4]; human hepatocytes, 10 μM, up to 4 hours): Eight | parent remained ([4]; human hepatocytes, 10 μM, after 4 hours of incubation): approximately 67% | Foral ([5]; Monkey oral 2 mg/kg single dose): 90% | Foral ([5]; Monkey oral 10 mg/kg single dose): 104% | AUC(0-t) [5, 15]: 1520 ng·h/mL | half-life [5, 15]: 5.3 h | AUC(0-t) [5, 16]: 2730 ng·h/mL | Cmax [5, 16]: 500 ng/mL | Tmax [5, 16]: 1 to 2 h | half-life [5, 16]: 5 h | AUC(0-t) [5, 17]: 15800 ng·h/mL | Cmax [5, 17]: 2640 ng/mL | Tmax [5, 17]: 2 to 4 h | half-life [5, 17]: 5.1 h | bioavailability ([5]; in vivo, monkey, oral 2 and 10 mg/kg, read-out: absolute oral bioavailability (% F)): 90 to 104% | synergy [6]: Synergy | AUC(0-t) [7, 18]: 6560 ng·h/mL | Cmax [7, 18]: 515 ng/mL | half-life [7, 18]: 13.6 h | AUC(0-t) [7, 19]: 45500 ng·h/mL | Cmax [7, 19]: 2830 ng/mL | half-life [7, 19]: 14.3 h | AUC(0-t) [7, 20]: 97000 ng·h/mL | Cmax [7, 20]: 5340 ng/mL | half-life [7, 20]: 31.5 h | AUC(0-t) [7, 21]: 6480 ng·h/mL | Cmax [7, 21]: 622 ng/mL | half-life [7, 21]: 9.25 h | AUC(0-t) [7, 22]: 22200 ng·h/mL | Cmax at 28 days [7, 22]: 2070 ng/mL | half-life [7, 22]: 7.66 h | toxicological findings ([7]; minipig pivotal study, dose-dependent, reversible on cessation): bone marrow toxicity | Percentage Bound [8]: 68.8% | Percentage Free [8]: 31.2%
